Here are results for 1 molecule from US10870876B2, “Method for detecting a presence or absence of at least one first zone of inhibition” (BIOMÉRIEUX, priority 2015, dated 2020).

In the test the test system is Staphylococcus aureus ATCC 25923. As to the kind of experiment: Disk-diffusion test with ampicillin disk, inoculation by flooding or by droplets along an axis. In kind it is cell-based. The settings on record: disk containing 10 pig of ampicillin, 0.5 McFarland, 37° C. for 6 hours 30 minutes; similar for flooding and droplets; EUCAST threshold R 18 mm. An excerpt: A conventional test of sensitivity is the disk-diffusion test, often referred to as the Kirby-Bauer method. This standardized method involves the inoculation of an agar culture medium (for example a 90 mm or 150 mm Mueller-Hinton agar) with a sample, generally standardized to 0.5 McFarland, obtained from a microbial isolate. The inoculation may be performed by conventional manual methods, by means of a swab or a loop. Alternatively, the inoculation may be performed by flooding the agar with a suspension standardized to one tenth of 0.5 McFarland, followed by removal of the excess sample. Following the inoculation, one or more paper disks impregnated with defined concentrations of antibiotics are deposited on the surface of the agar. After an incubation period, generally from 16 to 20 hours at 35° C., the diameter of the zone(s) of inhibition around the disks makes it possible to determine the sensitivity of the microorganism present in the inoculated sample to each of the antimicrobial agents impregnated in each disk. Due to the standardization of the Kirby-Bauer method, the results of this method are analyzed by comparing the diameter of each of the zones of inhibition with the recommendations published by regulatory bodies such as NCCLS (National Committee for Clinical Laboratory Standards) or EUCAST (European Committee on Antimicrobial Susceptibility Testing). […]

SMILES strings stand for the structures.

As for `CC1(C)S[C@@H]2[C@H](NC(=O)[C@H](N)c3ccccc3)C(=O)N2[C@H]1C(=O)O` [Ampicillin, ampicillin], the “diameter D of the zone of inhibition” value is recorded as 22 mm.
